Results reported in patent US11059815B2, “Synthesis of small molecule histone deacetylase 6 degraders, compounds formed thereby, and pharmaceutical compositions containing them” (Wisconsin Alumni Research Foundation, priority 2018, dated 2021).
Where two headings read alike, the source gives them in different places.

Tested on: MM1S cells
Test: Cell viability assay in MM1S cells
Format: cell-based, human
Settings: for Maximal Inhibition (%) of growth / IC50: 0.3 nM to 3 μM, nonlinear fit, ± SD; for IC50 / inhibition at 1 µM: Homo sapiens, MM1.S; for IC50: read-out: IC50 of antiproliferation
Experimental: FIG. 14A is a histogram depicting cell viability of MM1S cells treated with compounds at 1 μM for 72 h. FIG. 14B is a graph showing cell viability of MM1S cells treated with compounds at concentrations from 0.3 nM to 3 μM for 72 h. All data were normalized to vehicle (DMSO)-treated group and dot plot represented as mean of relative viability (n=3) with ±SD as error bar. For the curve in FIG. 14B, nonlinear fitting of inhibitor concentration vs. response (three parameters) was generated by GraphPad Prism with R^2 from 0.92 to 0.97. Statistical significance was analyzed by one-way ANOVA for FIG. 14A and two-way ANOVA for FIG. 14B. Not significant (ns) P>0.05, *P≤0.05, **P≤0.01, ***P≤0.001, ****P≤0.0001.
FIG. 18 is a histogram showing that HDAC6 degrader and IMiD inhibited MM1S growth synergistically. MM1S cells were treated for 72 h and cell proliferation was examined by AlarmaBlue-brand cell viability assay (ThermoFisher Scientific, Waltham, Mass., USA). Statistical significance was analyzed by one-way ANOVA. Not significant (ns) P>0.05, *P≤0.05, **P≤0.01, ***P≤0.001, ****P≤0.000
Single treatment or co-treatment was performed as combined therapy (1 μM) for 72 hours in MM1S cells. […] However, the single treatment of 12d improved about 19% (P=0.0017) and 11% (P=0.0213) growth inhibition comparing with the combination sets of 13+15 (1:1) and pomalidomide+Next-A (1:1), respectively. To further confirm the observed enhancement, the anti-proliferation in response to 12d was studied from 0.3 nM to 3 μM. This single treatment was compared with dual treatment of 13 and 15 to rule out the potential complication derived from cell permeability issue. Degrader 12d lowered the bottom line (minimal proliferation) of curve over 20% although its IC50 was […] consequentially.
MM1S cells were harvested and plated with 1×10^5 cells in […] media per well in 96-well plate. After overnight seeding, 25 μL media containing 5× dosing concentration of the compounds or vehicle was added to each well. After 72-hour treatment at 37° C. in a humidified 5% CO2 atmosphere, 12.5 μL 10× resazurin solution (1 mg/mL) was added to each well. Then cells were incubated at 37° C. overnight. The optical density was read at 570 nm and 600 nm by plate reader.
The relative viability (RV) was measured by followed formula: […]
The single treatment of HDAC6 inhibitor, HDAC6 degrader 3j, IMiD (pomalidomide), and the combination of the two was compared in MM1S cells to evaluate cell vialility. […] Pomalidomide suppressed ˜50% proliferation at either 1 μM or 100 nM concentration. […] The results confirmed that HDAC6 degradation and IKZF degradation work synergistically to inhibit the growth of multiple myeloma cells.

CCCCN(Cc1ccc(C(=O)NO)cc1)C(=O)Nc1ccc(OCCCCCn2cc(CNc3cccc4c3C(=O)N(C3CCC(=O)N(C)C3=O)C4=O)nn2)cc1 (stereo not shown) [Compound 15, 4-((1-butyl-3-(4-((5-(4-(((2-(1-methyl-2,6-dioxopiperidin-3-yl)-1,3-dioxoisoindolin-4-yl)amino)methyl)-1H-1,2,3-triazol-1-yl)pentyl)oxy)phenyl)ureido)methyl)-N-hydroxybenzamide]
effect on cell growth (1 μM, 72 h): totally inactive

CCCCN(Cc1ccc(C(=O)NO)cc1)C(=O)Nc1ccc(OCCCCCn2cc(CNc3cccc4c3C(=O)N(C3CCC(=O)NC3=O)C4=O)nn2)cc1 (stereo not shown) [Compound 12d, 4-((1-butyl-3-(4-((5-(4-(((2-(2,6-dioxopiperidin-3-yl)-1,3-dioxoisoindolin-4-yl)amino)methyl)-1H-1,2,3-triazol-1-yl)pentyl)oxy)phenyl)ureido)methyl)-N-hydroxybenzamide]
Maximal Inhibition (%) of growth (72 h): 63.15 ± 1.82% | degrader concentration at which HDAC6 degradation and IKZF degradation had synergistic effects (72 h): > 300 nM | lowering of bottom line (minimal proliferation) of curve (72 h, versus 13 and 15 dual treatment): over 20% | IC50 (72 h): 74.9 ± 11.3 nM | inhibition at 1 µM (1 μM, 72 h, P=0.0017, read-out: improvement of growth inhibition compared with 13+15 (1:1)): ~19% | inhibition at 1 µM (1 μM, 72 h, P=0.0213, read-out: improvement of growth inhibition compared with pomalidomide+Next-A (1:1)): ~11%

CCCCN(Cc1ccc(C(=O)NO)cc1)C(=O)Nc1ccccc1 [Next-A, 4-[[butyl[(phenylamino)carbonyl]amino]methyl]-N-hydroxy-benzamide, reference compound]
anti-proliferation effect, single treatment (1 μM, 72 h): did not show any anti-proliferation effect | effect on cell growth (1 μM, 72 h): minor effects

Nc1cccc2c1C(=O)N(C1CCC(=O)NC1=O)C2=O (stereo not shown) [Pomalidomide, reference compound]
suppression of proliferation (either 1 μM or 100 nM, 72 h): ~50%

CCCCN(Cc1ccc(C(=O)OC)cc1)C(=O)Nc1ccc(OCCCCCn2cc(CNc3cccc4c3C(=O)N(C3CCC(=O)NC3=O)C4=O)nn2)cc1 (stereo not shown) [Compound 13, Methyl 4-((1-butyl-3-(4-((5-(4-(((2-(2,6-dioxopiperidin-3-yl)-1,3-dioxoisoindolin-4-yl)amino)methyl)-1H-1,2,3-triazol-1-yl)pentyl)oxy)phenyl)ureido)methyl)benzoate]
Maximal Inhibition (%) of growth (72 h): 43.96 ± 1.16% | IC50 (72 h): 17.7 ± 2.84 nM

CCCCN(Cc1ccc(C(=O)NO)cc1)C(=O)Nc1ccc(OCCCCCn2cc(CNc3cccc4c3C(=O)N(C3CCC(=O)NC3=O)C4=O)nn2)cc1 (stereo not shown) [Compound 2]
anti-proliferation effect of degrader alone: significant anti-proliferation effect
